Columns and labels:
A549-ACE2 [1] = experiment: phospholipidosis EC50; higher = less potent phospholipidosis inducer
U2OS [2] = experiment: drug sensitivity score (DSS) for viability; higher = more toxic; extreme values may be limits of the assay; details: 72 h
Caco-2 [3] = experiment: as above; details: 72 h
HepG2 [4] = experiment: as above; details: 72 h
Vero E6 [5] = experiment: as above; details: 72 h
U2OS [6] = experiment: relative viability EC50 (midpoint between 100% and the lowest measured viability); higher = less toxic; details: 72 h
Caco-2 [7] = experiment: as above; details: 72 h
HepG2 [8] = experiment: as above; details: 72 h
U2OS [9] = experiment: cell viability relative to DMSO; higher = less toxic; details: 72 h
Caco-2 [10] = experiment: as above; details: 72 h
HepG2 [11] = experiment: as above; details: 72 h
Vero E6 [12] = experiment: as above; details: 72 h
[13] = tested on: A549-ACE2 infected with SARS-CoV-2; experiment: SARS-CoV-2 infection rate relative to DMSO; higher = more infection; details: 24 h
A549-ACE2 [14] = experiment: drug-induced phospholipidosis relative to tamoxifen; higher = more phospholipidosis
[15] = tested on: A549-ACE2 infected with SARS-CoV-2; experiment: cell count relative to DMSO; higher = less toxic; details: 24 h
[16] = tested on: A549-ACE2 infected with SARS-CoV-2; experiment: morphology score (similarity to uninfected cells); higher = more like uninfected cells; details: 24 h
Calu-3 [17] = experiment: drug sensitivity score (DSS) for viability; higher = more toxic; extreme values may be limits of the assay; details: 72 h
Calu-3 [18] = experiment: relative viability EC50 (midpoint between 100% and the lowest measured viability); higher = less toxic; details: 72 h
Vero E6 [19] = experiment: as above; details: 72 h
Calu-3 [20] = experiment: cell viability relative to DMSO; higher = less toxic; details: 72 h

Cc1cccc(Nc2nc(-c3ccncc3)cs2)c1
Details	SARS-CoV-2 infection rate [%]	cell count [%]	cell viability [%]	morphology score	phospholipidosis EC50 [nM]
A549-ACE2 [1], 24 h	–	–	–	–	2940
A549-ACE2 [1], 48 h	–	–	–	–	2720
A549-ACE2 [1], 72 h	–	–	–	–	3300
Caco-2 [10], 1 nM	–	–	102	–	–
Caco-2 [10], 10 nM	–	–	111	–	–
Caco-2 [10], 100 nM	–	–	97.4	–	–
Caco-2 [10], 1000 nM	–	–	98	–	–
Caco-2 [10], 10000 nM	–	–	85.8	–	–
HepG2 [11], 1 nM	–	–	104	–	–
HepG2 [11], 10 nM	–	–	108	–	–
HepG2 [11], 100 nM	–	–	97.2	–	–
HepG2 [11], 1000 nM	–	–	94.1	–	–
HepG2 [11], 10000 nM	–	–	48.5	–	–
U2OS [9], 1 nM	–	–	99.2	–	–
U2OS [9], 10 nM	–	–	98.5	–	–
U2OS [9], 100 nM	–	–	95.8	–	–
U2OS [9], 1000 nM	–	–	98.5	–	–
U2OS [9], 10000 nM	–	–	93.6	–	–
Vero E6 [12], 1 nM	–	–	95.5	–	–
Vero E6 [12], 10 nM	–	–	111	–	–
Vero E6 [12], 100 nM	–	–	99	–	–
Vero E6 [12], 1000 nM	–	–	94.9	–	–
Vero E6 [12], 10000 nM	–	–	70.6	–	–
[13], 0.1 µM	92	–	–	–	–
[13], 0.3 µM	91	–	–	–	–
[13], 1 µM	83	–	–	–	–
[13], 3 µM	50	–	–	–	–
[15], 0.1 µM	–	108	–	–	–
[15], 0.3 µM	–	107	–	–	–
[15], 1 µM	–	110	–	–	–
[15], 3 µM	–	106	–	–	–
[16], 0.1 µM	–	–	–	0.25	–
[16], 0.3 µM	–	–	–	0.02	–
[16], 1 µM	–	–	–	0.28	–
[16], 3 µM	–	–	–	0.31	–

Details	drug sensitivity score	relative viability EC50 [nM]
Caco-2 [3]	0.3	–
Caco-2 [7]	–	> 10000
HepG2 [4]	3.7	–
HepG2 [8]	–	2220
U2OS [2]	0	–
U2OS [6]	–	> 10000
Vero E6 [5]	2.1	–

drug-induced phospholipidosis [%], A549-ACE2 [14]
Details	0.3 µM	0.833333 µM	3.33333 µM	6.66667 µM	10 µM	30 µM
24 h	2.6	8.64	73.8	102	110	57.3
48 h	5.9	9.76	87.3	116	123	69.6
72 h	6.14	9.12	70	125	120	–

OCCN1CCN(CC/C=C2/c3ccccc3Sc3ccc(C(F)(F)F)cc32)CC1 [flupentixol]
Details	SARS-CoV-2 infection rate [%]	cell count [%]	cell viability [%]	morphology score	phospholipidosis EC50 [nM]
A549-ACE2 [1], 24 h	–	–	–	–	17000
A549-ACE2 [1], 48 h	–	–	–	–	8950
A549-ACE2 [1], 72 h	–	–	–	–	10200
Caco-2 [10], 1 nM	–	–	90.3	–	–
Caco-2 [10], 10 nM	–	–	93.7	–	–
Caco-2 [10], 100 nM	–	–	95.2	–	–
Caco-2 [10], 1000 nM	–	–	87.6	–	–
Caco-2 [10], 10000 nM	–	–	92.4	–	–
Calu-3 [20], 1 nM	–	–	85.3	–	–
Calu-3 [20], 10 nM	–	–	87.7	–	–
Calu-3 [20], 100 nM	–	–	106	–	–
Calu-3 [20], 1000 nM	–	–	94.7	–	–
Calu-3 [20], 10000 nM	–	–	87	–	–
HepG2 [11], 1 nM	–	–	97.2	–	–
HepG2 [11], 10 nM	–	–	93.8	–	–
HepG2 [11], 100 nM	–	–	90	–	–
HepG2 [11], 1000 nM	–	–	96.9	–	–
HepG2 [11], 10000 nM	–	–	89.9	–	–
U2OS [9], 1 nM	–	–	99.2	–	–
U2OS [9], 10 nM	–	–	89.9	–	–
U2OS [9], 100 nM	–	–	105	–	–
U2OS [9], 1000 nM	–	–	94.6	–	–
U2OS [9], 10000 nM	–	–	92.1	–	–
Vero E6 [12], 1 nM	–	–	98.1	–	–
Vero E6 [12], 10 nM	–	–	96.9	–	–
Vero E6 [12], 100 nM	–	–	98.1	–	–
Vero E6 [12], 1000 nM	–	–	91.8	–	–
Vero E6 [12], 10000 nM	–	–	93.1	–	–
[13], 0.3 µM	97	–	–	–	–
[13], 3 µM	66	–	–	–	–
[13], 10 µM	17	–	–	–	–
[13], 30 µM	46	–	–	–	–
[15], 0.3 µM	–	107	–	–	–
[15], 3 µM	–	113	–	–	–
[15], 10 µM	–	124	–	–	–
[15], 30 µM	–	96	–	–	–
[16], 0.3 µM	–	–	–	0.2	–
[16], 3 µM	–	–	–	0.62	–
[16], 10 µM	–	–	–	0.88	–
[16], 30 µM	–	–	–	0.36	–

Details	drug sensitivity score	relative viability EC50 [nM]
Caco-2 [3]	0	–
Caco-2 [7]	–	> 10000
Calu-3 [17]	0.6	–
Calu-3 [18]	–	> 10000
HepG2 [4]	0	–
HepG2 [8]	–	> 10000
U2OS [2]	0	–
U2OS [6]	–	> 10000
Vero E6 [5]	0	–
Vero E6 [19]	–	> 10000

drug-induced phospholipidosis [%], A549-ACE2 [14]
Details	0.3 µM	0.833333 µM	3.33333 µM	6.66667 µM	10 µM	30 µM
24 h	4.08	5.01	30.1	43.1	72.8	122
48 h	5.09	0.98	25.8	36.9	80	116
72 h	7.2	2.4	18.4	31.8	74.8	138

CCOC(=O)c1ncn2c1[C@@H]1CCCN1C(=O)c1cc(OC)ccc1-2 [L-655,708]
Details	drug sensitivity score	relative viability EC50 [nM]
Caco-2 [3]	0	–
Caco-2 [7]	–	> 10000
Calu-3 [17]	0	–
Calu-3 [18]	–	> 10000
HepG2 [4]	0	–
HepG2 [8]	–	> 10000
U2OS [2]	0	–
U2OS [6]	–	> 10000
Vero E6 [5]	0	–
Vero E6 [19]	–	> 10000

cell viability [%]
Details	Caco-2 [10]	Calu-3 [20]	HepG2 [11]	U2OS [9]	Vero E6 [12]
1 nM	97.8	101	90.7	100	94.6
10 nM	95.8	88	100	98.9	95
100 nM	118	96.3	104	97.5	92.3
1000 nM	95.1	96.7	98.7	99.2	97.9
10000 nM	107	105	106	104	111

COC(=O)C[C@](O)(CCCC(C)(C)O)C(=O)O[C@@H]1C(OC)=C[C@]23CCCN2CCc2cc4c(cc2[C@H]13)OCO4 [homoharringtonine]
Details	drug sensitivity score	relative viability EC50 [nM]
Caco-2 [3]	18.6	–
Caco-2 [7]	–	99
Calu-3 [17]	18.5	–
Calu-3 [18]	–	89.7
HepG2 [4]	27	–
HepG2 [8]	–	49.7
U2OS [2]	26.8	–
U2OS [6]	–	61.6
Vero E6 [5]	18.2	–
Vero E6 [19]	–	273

Details	SARS-CoV-2 infection rate, [13] [%]	cell count, [15] [%]	cell viability, Caco-2 [10] [%]	cell viability, Calu-3 [20] [%]	cell viability, HepG2 [11] [%]	cell viability, U2OS [9] [%]	cell viability, Vero E6 [12] [%]	morphology score, [16]
1 nM	–	–	99.3	93.4	98.4	104	92.4	–
10 nM	–	–	102	91.1	89.1	101	103	–
100 nM	–	–	61.8	60.1	29.4	23	82.1	–
0.3 µM	12	68	–	–	–	–	–	0.32
1000 nM	–	–	24.7	27.3	6	6.6	12.8	–
3 µM	16	49	–	–	–	–	–	0.26
10000 nM	–	–	27.9	22	1	0.3	0.5	–
10 µM	19	42	–	–	–	–	–	0.3
30 µM	15	30	–	–	–	–	–	0.33

Details	drug-induced phospholipidosis [%]
A549-ACE2 [14], 0.3 µM, 24 h	-2.95

C=CC(=O)Nc1cccc(Nc2nc(Nc3ccc(NC4CN(CCF)C4)cc3OC)ncc2C(F)(F)F)c1 [CNX-2006]
Details	drug sensitivity score	relative viability EC50 [nM]
Caco-2 [3]	5.9	–
Caco-2 [7]	–	1510
Calu-3 [17]	13.3	–
Calu-3 [18]	–	464
HepG2 [4]	3.8	–
HepG2 [8]	–	3340
U2OS [2]	4.7	–
U2OS [6]	–	2210
Vero E6 [5]	5.9	–
Vero E6 [19]	–	1960

cell viability [%]
Details	Caco-2 [10]	Calu-3 [20]	HepG2 [11]	U2OS [9]	Vero E6 [12]
1 nM	105	96.2	99.9	102	102
10 nM	100	99.4	110	98.7	102
100 nM	99.1	77.9	97.3	98.8	101
1000 nM	83.7	44.4	102	92.7	88.7
10000 nM	38.3	10	27.6	37.2	26.7

Reference: the supplement of paper PMC13380429
